Assay results reported in patent US20140120598A1 (priority 2011, published 2014).
Where two headings read alike, the source gives them in different places.

Experiments:
[1] = system: ΔPHO13 strain (S. cerevisiae BY4741X with PHO13 deleted); format: cell-based; conditions: for amount of production of ethanol: 80 g/L xylose
Source text: (§1) A solution obtained by incorporating 80 g/L of xylose into a YP medium (containing 1% of a yeast extract, 2% of peptone, and 0.5% of […]) was used as a material using xylose as a carbon source. […]

[2] = system: BY4741X strain (control); assay: Fermentation with xylose as carbon source by the control strain in the presence of a fermentation inhibitor; format: cell-based, S. cerevisiae; conditions: 72 hours
Source text: as §1

[3] = system: S. cerevisiae MN8140X; conditions: 100 mM of acetic acid
Source text: A medium formed of 10 g/L of a yeast extract, 20 g/L of polypeptone, 80 g/L of glucose, and 60 g/L of xylose was used as the solution using glucose and xylose as carbon sources.

[4] = 30 mM of formic acid, after 24 hours
[5] = 30 mM of formic acid, after 72 hours
[6] = 60 mM of furfural versus no furfural, 72 hours
[7] = 90 mM of furfural, after 24 hours
[8] = 90 mM of furfural, after 72 hours
[9] = 60 mM of acetic acid, after 24 hours
[10] = 60 mM of acetic acid, after 72 hours

Compound: O=CO [formic acid]
- resistance of the strain to the fermentation inhibitor in ethanol production using xylose as a carbon source [1]: resistant
- amount of production of ethanol relative to control (BY4741X strain) [1, 4]: 4.1 times
- amount of production of ethanol [1, 4]: 6 g/L
- amount of production of ethanol relative to control (BY4741X strain) [1, 5]: 5.5 times
- amount of production of ethanol [1, 5]: 11 g/L
- xylose consumption and ethanol production versus inhibitor concentration ([1]; formic acid 0, 15 and 30 mM, 72 hours): a tendency similar to that in the case of acetic acid was observed

Compound: O=Cc1ccco1 [furfural]
- consumption rate of xylose ([2]; furfural 60 and 90 mM versus 0 mM): reduced
- resistance of the strain to the fermentation inhibitor in ethanol production using xylose as a carbon source [1]: resistant
- consumption rate of xylose [1, 6]: substantially the same as that in the case where furfural was not incorporated
- ethanol-producing ability [1, 6]: effective ethanol production was similarly observed
- amount of production of ethanol relative to control (BY4741X strain) [1, 7]: 27.5 times
- amount of production of ethanol [1, 7]: 21 g/L
- amount of production of ethanol relative to control (BY4741X strain) [1, 8]: 5.5 times
- amount of production of ethanol [1, 8]: 31 g/L

Compound: CC(=O)O [acetic acid]
- consumption rate of xylose ([2]; acetic acid 0, 30 and 60 mM): reduced depending on an acetic acid concentration
- resistance of the strain to the fermentation inhibitor in ethanol production using xylose as a carbon source [1]: resistant
- amount of production of ethanol relative to control (BY4741X strain) [1, 9]: 2.3 times
- amount of production of ethanol [1, 9]: 13 g/L
- amount of production of ethanol relative to control (BY4741X strain) [1, 10]: 1.4 times
- amount of production of ethanol [1, 10]: 20 g/L
- consumption rate of xylose ([1]; acetic acid 0, 30 and 60 mM, 72 hours): reduced depending on an acetic acid concentration
- action in ethanol production by the yeast [3]: showed a fermentation inhibitory action
- amount of production of ethanol ([3]; fermentation 48 hours, 30° C.): also suppressed
- consumption of glucose as a carbon source ([3]; fermentation 48 hours, 30° C.): suppressed
